The values that follow are results of earlier work, collected in paper PMC3298469, “A selective and potent CXCR3 antagonist SCH 546738 attenuates the development of autoimmune diseases and delays graft rejection” (BMC Immunology, 2012).

Read-outs that look alike come from different tables or passages of the source.

In data set [1] the test system is cardiac allograft. Conditions: cited from earlier work.
In data set [2] the test system is EAE. Also noted: method as in PMID 20050195. Conditions: by decreasing migration of inflammatory cells into the CNS; cited from earlier work.
Details of data set [3]: method as in ref 44 = [44]; Medarex Announces Primary Endpoint Achieved in MDX-1100 Anti-IP-10 Antibody Phase 2 Trial for Rheumatoid Arthritis http://www.fiercebiotech.com/press-releases/medarex-announces-primary-endpoint-achiev. The note with it: phase 2 clinical trial for RA; cited from earlier work.
The conditions of data set [4]: Phase II clinical trials, halted; cited from earlier work.
Data set [5] relates to rat. Further details: method as in ref 21 = [21]; Medina J Presented at the 29th National Medicinal Chemistry Symposium (Madison, Wisconsin), June 27-July 1 2004. The note with it: rat model of CIA; cited from earlier work.
Data set [6] relates to mouse. Further details: method as in ref 21 = [21]; Medina J Presented at the 29th National Medicinal Chemistry Symposium (Madison, Wisconsin), June 27-July 1 2004. The note with it: mouse model of CIA; cited from earlier work.

In the case of `Cc1ccc(-c2ccc3c(c2)C=C(C(=O)Nc2ccc(C[N+](C)(C)C4CCOCC4)cc2)CCC3)cc1.[Cl-]` [TAK-779], the “effect on cardiac allograft vasculopathy” value in data set [1] is reported as “attenuates cardiac allograft vasculopathy”. In addition, the “effect on EAE” value in data set [2] was “reduce incidence and severity of EAE”.
As to MDX-1100: anti-IP-10 antibody, in data set [3], the clinical outcome is “efficacy”.
For the compound `CCOc1ccc(-n2c([C@@H](C)N(Cc3cccnc3)C(=O)Cc3ccc(OC(F)(F)F)cc3)nc3ncccc3c2=O)cc1` [AMG487], the clinical outcome in data set [4] is listed as “lack of efficacy”. In addition, the “effect in CIA” value in data set [5] is “reduced inflammation and cartilage damage”; in data set [6], “reduced inflammation and cartilage damage”.
